From US10046048B2, “Homogenous suspension of immunopotentiating compounds and uses thereof” (GlaxoSmithKline Biologicals SA, priority 2009, dated 2018)

Legend:
[1] = serum, injection site muscle and lymph node levels after intramuscular injection; assay type: in vivo; details: mice, intramuscular 4 mpk with 3MenB/Alum; both DMSO (non-homogeneous) and homogeneous suspensions
[2] = system: RSV virus; assay: neutralizing titers (PRNT60), RSV model; assay type: in vivo, respiratory syncytial virus (RSV); details: Study 1; Balb/c mice; 25 μg dose
Excerpt: Mice were bled retro-orbitally on day 28.

[3] = aqueous solubility and chemical stability of Example 47; assay type: physicochemical
Description: Example 47 is a highly crystalline drug substance with very good chemical stability. Due to its extremely low aqueous solubility across full pH range (<0.5 μg/ml) and its high hydrophobic core structure, formulation with Alum (the only vaccine adjuvant licensed in the U.S.) is challenging. However, TLR7 agonist-Alum based vaccines could provide advantages, for example, induction of Th1 polarized response, and enhanced Serum Bactericidal Activity (SBA) and breath of coverage (e.g., MenB).

[4] = particle size after vortexing, sonication, mortar and pestle; assay type: physicochemical; details: for average particle size: 2.5 mg/mL in 0.1% Tween 80 and 0.5% CMC, vortexing
Description: A number of homogenization methods were evaluated, including vortexing, sonication, and mortar and pestle method.
For vortexing, Example 47 was suspended at 2.5 mg/mL in 0.1% Tween 80 and 0.5% carboxymethyl cellulose (CMC), followed by vortexing. The average particle size was ˜100 μm.
For sonication, Example 47 was suspended at 2.5 mg/mL in 0.1% Tween 80 and 0.5% CMC followed by vortexing. The mixture was then subject to probe sonication for 5 minutes (with ice at 3 W, maximum power based on vial size). Finally, the mixture was homogenized by a handheld homogenizer for a few minutes. The average particle size was ˜80 μm.
In mortar and pestle method, 10 mg of Example 47 was ground for 5 minutes using mortar and pestle, then suspended in 0.5% Tween 80. […] Size range for the larger peak was 1-100 μm.

[5] = matrix of surfactants and suspending agents, size distribution by Mastersizer; assay type: physicochemical; details: vortexed, probe sonicated, homogenized
Description: A number of surfactants and suspension agents were also evaluated. The matrix of surfactants and suspending agents, and the corresponding sizes distributions of the suspension particles are shown in the Table 1 below (D50, D90 (μm)).
In each experiment, 10 mg of Example 47 was mixed with 2 mL surfactant and 2 mL suspending agent. The mixtures were vortexed for 5 minutes, and probe sonicated at 3 W and homogenized for 2-4 minutes. The size distributions of the samples were measured using Mastersizer.
No visual size reduction was observed after sonication. Some size reduction was noticed visually after homogenization.

[6] = 10 mg ground 5 minutes with mortar and pestle, suspended in 0.5% Tween 80
[7] = 0.5% CMC, 0.5% Sodium Lauryl Sulfate
[8] = 0.5% HPC, 0.5% Sodium Lauryl Sulfate
[9] = 0.5% HPMC, 0.5% Sodium Lauryl Sulfate

For `Cc1ccc(CCc2cnc3c(N)nc4ccccc4c3c2)c(C)c1` [Example 47, 2-(2,4-dimethylphenethyl)benzo[f][1,7]naphthyridin-5-amine], the systemic exposure [1] was “low systemic exposure”, the “neutralizing titers, comparison of doses” value [2] was “Highest neutralizing titers” and the solubility ([3]; aqueous media, across full pH range) was less than 0.5 µg/mL. For the same compound, the chemical stability ([3]; crystalline drug substance) was “very good”, the average particle size [4] was roughly 100 μm and the average particle size ([4]; probe sonication 5 minutes, handheld homogenizer) was roughly 80 μm. For the same compound, the “particle size peak (larger)” value [4, 6] was roughly 8 μm, the “particle size peak (smaller)” value [4, 6] was 0.1 μm and the “size range for the larger peak” value [4, 6] was 1-100 μm. For the same compound, the D50 ([5]; 0.5% CMC, 0.1% Tween 80) was 76.2 μm, the D90 ([5]; 0.5% CMC, 0.1% Tween 80) was 144.7 μm and the D50 ([5]; 0.5% CMC, 0.5% Pluronic F-68) was 49.1 μm. The D90 ([5]; 0.5% CMC, 0.5% Pluronic F-68) was 104.4 μm, the D50 [5, 7] was 28.0 μm and the D90 [5, 7] was 53.3 μm. It also gave a D50 ([5]; 0.5% CMC, 0.5% Tween 80) of 75.8 μm, a D90 ([5]; 0.5% CMC, 0.5% Tween 80) of 149.1 μm and a D50 ([5]; 0.5% HPC, 0.1% Tween 80) of 43.6 μm. For the same compound, the D90 ([5]; 0.5% HPC, 0.1% Tween 80) was 68.0 μm, the D50 ([5]; 0.5% HPC, 0.5% Pluronic F-68) was 35.8 μm and the D90 ([5]; 0.5% HPC, 0.5% Pluronic F-68) was 54.9 μm. It also gave a D50 [5, 8] of 38.9 μm, a D90 [5, 8] of 53.1 μm and a D50 ([5]; 0.5% HPC, 0.5% Tween 80) of 35.4 μm. For the same compound, the D90 ([5]; 0.5% HPC, 0.5% Tween 80) was 53.5 μm, the D50 ([5]; 0.5% HPMC, 0.1% Tween 80) was 25.8 μm and the D90 ([5]; 0.5% HPMC, 0.1% Tween 80) was 53.5 μm. It also gave a D50 ([5]; 0.5% HPMC, 0.5% Pluronic F-68) of 19.4 μm, a D90 ([5]; 0.5% HPMC, 0.5% Pluronic F-68) of 33.5 μm and a D50 [5, 9] of 26.8 μm. It also gave a D90 [5, 9] of 59.3 μm, a D50 ([5]; 0.5% HPMC, 0.5% Tween 80) of 27.5 μm and a D90 ([5]; 0.5% HPMC, 0.5% Tween 80) of 49.7 μm.
